“Also recorded” adds a separate entry of the source.
Key:
[1] = system: A. montanum; assay: Effect of histidine in the root medium on xylem-sap exudation and nickel flux of excised roots; type: in vivo, Alyssum montanum; settings: 0.3 mM NiSO4 with or without 0.3 mM histidine in root medium, exudate collected over 12 h
Source text: 6. […] That is, the application of relatively high concentrations of histidine exogenously is able to increase markedly both the nickel tolerance of an otherwise non-tolerant species of Alyssum (A. montanum) and to cause these plants to translocate nickel out of the root system at much higher rates. Thus, chelation of nickel by histidine is important both in the detoxification of the metal ion within the plant and in facilitating the transport of the metal from root to shoot, a characteristic of metal-hyperaccumulator plants generally (Baker, A. J. M. and Brooks, R. R. (1989) loc. cit.).
FIG. 4. Effect of exogenously applied histidine on nickel tolerance and xylem nickel translocation. a, Effect of foliar spraying with histidine (compared with glutamine) on nickel tolerance of A. montanum, assayed as the effect on whole-plant dry biomass production and root elongation. After germination for 7 d, plants were grown in modified Hoagland solution (FIG. 1) containing either 0 or 0.03 mM NiSO4 for 23 d and were sprayed daily with a solution of either 20 mM glutamine (Ni) or 20 mM histidine (His+Ni), both containing 0.01% (v/v) of the non-ionic detergent Tween 20. Values of biomass production and root elongation are for nickel-treated plants expressed as percentages of the respective controls grown in the absence of nickel. Each bar represents the mean of 9 plants+1 SE. […]

[2] = system: A. lesbiacum; assay: as above; type: in vivo, Alyssum lesbiacum; settings: 0.3 mM NiSO4 with or without 0.3 mM histidine in root medium, 12 h
Source text: FIG. 4. Effect of exogenously applied histidine on nickel tolerance and xylem nickel translocation. a, Effect of foliar spraying with histidine (compared with glutamine) on nickel tolerance of A. montanum, assayed as the effect on whole-plant dry biomass production and root elongation. […]. Values of biomass production and root elongation are for nickel-treated plants expressed as percentages of the respective controls grown in the absence of nickel. […]. Roots of 4-week-old plants were excised and exposed to a root medium of modified Hoagland solution supplemented with either 0.3 mM MgSO4 (controls) or 0.3 mM NiSO4, with or without 0.3 mM added histidine.

[3] = system: A. montanum; settings: histidine supplied to the xylem of excised shoots; cited from earlier work
[4] = system: A. montanum; assay: Effect of foliar spraying with histidine on nickel tolerance; type: in vivo, Alyssum montanum; settings: 20 mM histidine daily foliar spray with 0.01% Tween 20; 0.03 mM NiSO4 in root medium, 23 d; compared with 20 mM glutamine
Procedure: 6. […]. Thus, chelation of nickel by histidine is important both in the detoxification of the metal ion within the plant and in facilitating the transport of the metal from root to shoot, a characteristic of metal-hyperaccumulator plants generally (Baker, A. J. M. and Brooks, R. R. (1989) loc. cit.).
METHODS. Plants were germinated for 7 d on floating nets in 1 mM Ca(NO3)2 solution, subsequently transferred to 1.2-1 culture vessels (10 plants per vessel), and supplied with modified 0.1-strength Hoagland solution containing 0.1 mM KH2PO4, 0.5 mM KNO3, 0.4 mM Ca(NO3)2, 0.2 mM MgSO4, 0.01 mM FeNaEDTA, 0.01 mM H3BO3, 2 μM MnSO4, 0.2 μM ZnSO4, 0.2 μM CuSO4, 0.1 μM Na2MoO4 and 0.02 mM NaCl, supplemented with 0, 0.01, 0.03, 0.1, 0.3, 1, or 3 mM NiSO4. Plants were grown in a glasshouse at night temperatures between 14° C. and 18° C. and day temperatures between 22° C. and 34° C. with supplementary lighting provided by sodium-vapour lamps to give a 16-h photoperiod. Culture solutions were continuously aerated and exchanged every 7 d; solution pH remained in the range 5.6 to 6.0. Plants were harvested after 18 d, rinsed with distilled water, dried at 80° C. for 48 h and weighed. […].
FIG. 4. […] Values of biomass production and root elongation are for nickel-treated plants expressed as percentages of the respective controls grown in the absence of nickel. […]

[5] = system: A. montanum; settings: histidine supplied to the root medium of excised roots; earlier symposium report; cited from earlier work

## N[C@@H](Cc1c[nH]cn1)C(=O)O [histidine]
[1]
  flux of nickel through the xylem: greatly increased; also recorded: significantly greater
  rate of xylem-sap exudation: moderated the adverse effect of nickel; also recorded: significantly greater
[2]
  nickel flux: no significant differences
  xylem exudation rate: no significant differences
[3]
  toxicity of nickel: apparently reduced the toxicity of nickel
[4]
  root elongation (inhibitory effect of nickel): halving of the inhibitory effect; also recorded: significantly greater
  whole-plant dry biomass production: more than twofold increase; also recorded: significantly greater
[5]
  toxicity of nickel (exudation of sap, flux of nickel through the root system): apparently reduced the toxicity of nickel

From patent US6657106B2, “Removal of metals from contaminated substrates by plants” (ISIS Innovation Limited, priority 1995, dated 2003)
